Measured values taken from the supplement of paper PMC4862054.

Experiments:
Conditions in all cases: incubation time: 72 h
HCC1143 [1] = experiment: drug sensitivity score (DSS), CellTox Green (DSS (AUC-based score)); higher = stronger drug effect (viability inhibition or cytotoxicity); extreme values may be limits of the assay
Summary of the method: (§1)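 After 72 h of incubation in 384-well plates with compound at 5 concentrations (10-fold steps, 10,000-fold range set per compound), breast cancer cell lines seeded in 20 µl suspension were read first for CellTox Green fluorescence at 485/520 nm. CellTiter-Glo luminescence was measured next, after 10 min at room temperature. Normalisation on each plate used 0.1 % DMSO and a positive kill control, and the drug sensitivity score was computed from the area under the fitted dose-response curve.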

HCC1599 = experiment: as above
Summary of the method: as §1

CAL-51 = experiment: as above
Summary of the method: as §1

MDA-MB-453 = experiment: as above
Summary of the method: as §1

MDA-MB-231 [2] = experiment: as above
Summary of the method: as §1

CAL-120 = experiment: as above
Summary of the method: as §1

CAL-85-1 = experiment: as above
Summary of the method: as §1

MCF-10A [3] = experiment: as above
Summary of the method: as §1

BT-474 = experiment: as above
Summary of the method: as §1

MDA-MB-436 [4] = experiment: as above
Summary of the method: as §1

HCC1937 [5] = experiment: as above
Summary of the method: as §1

BT-549 = experiment: as above
Summary of the method: as §1

MDA-MB-468 [6] = experiment: as above
Summary of the method: as §1

MFM-223 [7] = experiment: as above
Summary of the method: as §1

CAL-148 = experiment: as above
Summary of the method: as §1

DU-4475 = experiment: as above
Summary of the method: as §1

HDQ-P1 [8] = experiment: as above
Summary of the method: as §1

Hs578T [9] = experiment: as above
Summary of the method: as §1

HCC1143 [10] = experiment: normalised response (% of control), CellTox Green; higher = less cell death (100 = DMSO, 0 = benzethonium chloride kill control)
Summary of the method: (§2)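 For each plate, 0.1 % DMSO was set to 100 and a positive kill control to 0. Breast cancer cell lines (20 µl suspension) were seeded into 384-well plates already holding compound at 5 concentrations in 10-fold steps over a 10,000-fold range chosen per compound, and incubated for 72 h. CellTox Green fluorescence at 485/520 nm was read before CellTiter-Glo luminescence, which followed 10 min at room temperature. Each value is the normalised signal at one concentration.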

MDA-MB-231 [11] = experiment: as above
Summary of the method: as §2

MCF-10A [12] = experiment: as above
Summary of the method: as §2

MDA-MB-436 [13] = experiment: as above
Summary of the method: as §2

HCC1937 [14] = experiment: as above
Summary of the method: as §2

MDA-MB-468 [15] = experiment: as above
Summary of the method: as §2

MFM-223 [16] = experiment: as above
Summary of the method: as §2

HDQ-P1 [17] = experiment: as above
Summary of the method: as §2

Hs578T [18] = experiment: as above
Summary of the method: as §2

Row | SMILES | drug sensitivity score (HCC1143 [1]) | drug sensitivity score (HCC1599) | drug sensitivity score (CAL-51) | drug sensitivity score (MDA-MB-453) | drug sensitivity score (MDA-MB-231 [2]) | drug sensitivity score (CAL-120) | drug sensitivity score (CAL-85-1) | drug sensitivity score (MCF-10A [3]) | drug sensitivity score (BT-474) | drug sensitivity score (MDA-MB-436 [4]) | drug sensitivity score (HCC1937 [5]) | drug sensitivity score (BT-549) | drug sensitivity score (MDA-MB-468 [6]) | drug sensitivity score (MFM-223 [7]) | drug sensitivity score (CAL-148) | drug sensitivity score (DU-4475) | drug sensitivity score (HDQ-P1 [8]) | drug sensitivity score (Hs578T [9]) | normalised response (HCC1143 [10]) [%] | normalised response (MDA-MB-231 [11]) [%] | normalised response (MCF-10A [12]) [%] | normalised response (MDA-MB-436 [13]) [%] | normalised response (HCC1937 [14]) [%] | normalised response (MDA-MB-468 [15]) [%] | normalised response (MFM-223 [16]) [%] | normalised response (HDQ-P1 [17]) [%] | normalised response (Hs578T [18]) [%]
1 | CN(c1ccccc1CNc1nc(Nc2ccc3c(c2)CC(=O)N3)ncc1C(F)(F)F)S(C)(=O)=O | 5.18 | 1.23 | 17.6 | 0 | 8.46 | 0 | 3.86 | 9.63 | 0 | 0 | 0 | 0.974 | 0 | 0 | 0 | 0 | 9.69 | 10.4 |  |  |  |  |  |  |  |  | 
2 | COc1ncc(-c2ccc3nccc(-c4ccnnc4)c3c2)cc1NS(=O)(=O)c1ccc(F)cc1F | 0 | 0 | 6.6 | 0 | 3.08 | 0 | 0 | 0.561 | 6.83 | 0 | 5.84 | 0 | 9.19 | 3.89 | 6.5 | 0 | 0 | 3.92 |  |  |  |  |  |  |  |  | 
3 | C[C@@]1(C(=O)Nc2ccc(F)nc2)CCCN1c1nc(Nc2cc(C3CC3)n[nH]2)c2cccn2n1 | 9.05 | 0 | 10.5 | 0 | 6.52 | 3.17 | 0 | 6.69 | 0 | 0 | 0 | 0 | 18.2 | 3.84 | 2.31 | 0 | 4.62 | 0 |  |  |  |  |  |  |  |  | 
4 | Nc1nccc(-c2c(-c3ccc(F)cc3)ncn2C2CCCCC2)n1 | 0 | 0 | 0 | 0 | 0 | 0 | 0 | 3.55 | 0 | 0 | 0 | 0 | 0 | 0 | 0 | 0 | 0 | 0 |  |  |  |  |  |  |  |  | 
5 | COc1c(C)cnc(Cn2cnc3c(Cl)nc(N)nc32)c1C [BIIB021] | 0 | 0 | 5.48 | 0 | 6.24 | 0 | 6.72 | 15.3 | 4.79 | 0 | 0 | 0 | 0 | 0 | 16 | 4.2 | 3.67 | 3.62 |  |  |  |  |  |  |  |  | 
6 | CC(C)C[C@H](NC(=O)[C@H](Cc1ccccc1)NC(=O)c1cnccn1)B(O)O [Bortezomib] | 6.67 | 0 | 18.7 | 2.35 | 22.4 | 13.6 | 27.8 | 7.83 | 6.53 | 16.6 | 21.4 | 6.42 | 33.3 | 12.5 | 13.5 | 2.21 | 20.1 | 17.3 |  |  |  |  |  |  |  |  | 
7 | O=c1[nH]c(=O)n([C@H]2C[C@H](O)[C@@H](CO)O2)cc1F [Floxuridine] | 0 | 0 | 5.94 | 0 | 0 | 0 | 4.11 | 0 | 0 | 0 | 0 | 0 | 0 |  | 0 | 0 | 1.01 | 0 |  |  |  |  |  |  |  |  | 
8 | O=c1[nH]cc(F)c(=O)[nH]1 [Fluorouracil] | 0 | 0 | 0 | 0 | 0 | 0 | 0 | 0 | 0 | 0.291 | 0 | 0 |  | 0 | 0 | 0 | 0 | 0 |  |  |  |  |  |  |  |  | 
9 | Cn1cnc2c(F)c(Nc3ccc(Br)cc3F)c(C(=O)NOCCO)cc21 [MEK-162] | 0 | 0 | 0 | 0 |  | 0 | 0 | 0 | 0 | 0 |  | 0 | 0 | 3.03 | 1.61 | 1.92 | 1.87 | 0 |  |  |  |  |  |  |  |  | 
10 | COC1=CC(c2cc3ccccc3[nH]2)=N/C1=C\c1[nH]c(C)cc1C [Obatoclax] (10000 nM) |  |  |  |  |  |  |  |  |  |  |  |  |  |  |  |  |  |  | 91.9 | 0.38 | 74.2 | 102 | 95.4 | 82.9 | 96.7 | 102 | 129
11 | CC(=O)O[C@H]1C(=O)[C@@]2(C)[C@H]([C@H](OC(=O)c3ccccc3)[C@]3(O)C[C@H](OC(=O)[C@H](O)[C@@H](NC(=O)c4ccccc4)c4ccccc4)C(C)=C1C3(C)C)[C@]1(OC(C)=O)CO[C@@H]1C[C@@H]2O [Paclitaxel] (100 nM) |  |  |  |  |  |  |  |  |  |  |  |  |  |  |  |  |  |  | 99.6 | -43 | -6.43 | 62.8 | 84.6 | 4.61 | 51.4 | 77.4 | 48.5
12 | CC(=O)O[C@H]1C(=O)[C@@]2(C)[C@H]([C@H](OC(=O)c3ccccc3)[C@]3(O)C[C@H](OC(=O)[C@H](O)[C@@H](NC(=O)c4ccccc4)c4ccccc4)C(C)=C1C3(C)C)[C@]1(OC(C)=O)CO[C@@H]1C[C@@H]2O [Paclitaxel] (1000 nM) |  |  |  |  |  |  |  |  |  |  |  |  |  |  |  |  |  |  | 87.3 | -30 | 1.34 | 49.4 | 71 | -32.9 | 58.8 | 81.5 | 18.5
13 | CC(C)(C)c1cc(NC(=O)Nc2ccc(-c3cn4c(n3)sc3cc(OCCN5CCOCC5)ccc34)cc2)no1 [Quizartinib] | 0 | 0 | 0 | 0 | 0 | 0 | 0 | 0 | 0 |  | 0 | 0 | 0 | 0 | 0 | 0 | 0 | 3.83 |  |  |  |  |  |  |  |  | 
14 | Cn1c(=O)c(F)c(Nc2ccc(I)cc2F)c2c(=O)n(C[C@@H](O)CO)cnc21 [TAK-733] | 0 | 0 | 0 | 0 | 5.12 | 0.284 | 5.06 | 0 | 0 | 0 | 0 | 0 | 0 | 0 | 0 | 4.73 | 0 |  |  |  |  |  |  |  |  |  | 
15 | Cn1c(=O)c(F)c(Nc2ccc(I)cc2F)c2c(=O)n(C[C@@H](O)CO)cnc21 [TAK-733] (1000 nM) |  |  |  |  |  |  |  |  |  |  |  |  |  |  |  |  |  |  | 128 | 64.2 | 110 | 97.9 | 102 | 87.6 | 104 | 94.6 | 38
16 | CCS(=O)(=O)c1cccc(-c2cc(C(=O)NC3CCN(C)CC3)c(C)c3[nH]c4ncc(C)cc4c23)c1 [TAK-901] | 0 | 0 |  | 0 | 3.45 | 0 | 0 | 0 | 0 | 0 | 0 | 0.958 | 0 | 0 | 0 | 0 | 0 | 0 |  |  |  |  |  |  |  |  | 
17 | CCS(=O)(=O)c1cccc(-c2cc(C(=O)NC3CCN(C)CC3)c(C)c3[nH]c4ncc(C)cc4c23)c1 [TAK-901] (1000 nM) |  |  |  |  |  |  |  |  |  |  |  |  |  |  |  |  |  |  | 87.8 | 57.7 | 90 | 69.2 | 95.2 | 74.3 | 85 | 55 | 106
18 | Cc1cc(C(C)Nc2ccccc2)c2nc(N3CCOCC3)cc(=O)n2c1 (stereo not drawn) [TGX-221] | 0 | 0 | 0 | 0 | 0.585 | 0 | 0 | 1.09 | 0 | 0 | 0 | 0 | 0 | 0 | 0 | 0 | 11.9 |  |  |  |  |  |  |  |  |  | 
19 | COc1cc(Nc2ncc(F)c(Nc3ccc4c(n3)NC(=O)C(C)(C)O4)n2)cc(OC)c1OC [Tamatinib] | 0 | 0 | 1.13 | 0 | 0 | 0 | 0 | 0 | 0 | 0 | 0 | 0 |  | 0 | 0 | 0 | 0 | 0 |  |  |  |  |  |  |  |  | 
